Assay results taken from US6812258B2, “Cancer treatment composition and method using natural plant essential oils” (Ecosmart Technologies, Inc., priority 1998, dated 2004).
Read-outs that look alike come from different tables or passages of the source.

Legend:
[1] = system: Human Epithelial Breast Cancer Cells (MCF-7); test: Antiproliferative effect, 3H-thymidine incorporation in MCF-7 cells with and without estrogen; type: cell-based; details: for activity at 50 µg/mL: Homo sapiens, MCF7, 24 h
Procedure: (§1) MCF-7 cells were cultured in growth medium supplemented with 10% fetal bovine serum (FBS). At 85% confluence, cells were sub-cultured in 5% FBS serum stripped medium, phenol red free for 24 hours prior to the treatment of the test chemical. After 24 hours of treatment cell proliferation was measured using ^3H-thymidine incorporation. These test chemicals were tested in the presence and absence of estrogen to address if they have anti-estrogenic activity in addition to their antiproliferative effect. The study was done in triplicate and a control was used with solvent only. Control received solvent only at <0.1% ethanol. Estrogen was tested at 1 nM (=0.27 ng E2/ml). Exemplary plant essential oil compounds were tested at 50 ug/ml.
as §1, with “(0.27” for “(=0.27”, “Plant” for “Exemplary plant”

MCF-7 cells = test: Dose-response effect on E2-induced cell growth, viable cell count (trypan blue, haemocytometer); type: cell-based, human
Procedure: MCF-7 cells were cultured in growth medium supplemented with 10% fetal bovine serum (FBS). At 85% confluence, cells were sub-cultured in 6 well petri-dishes and supplemented with 5% FBS serum stripped medium, phenol red free for 24 hours prior to the treatment of different concentrations of the test chemicals. After 5 days of treatment cells were trypsinized, collected using Eppendorf microcentrifuge. The cell pellets were resuspended in 1% trypan blue and three aliquots (10 ul each) of the viable cell suspension were counted using a haemocytometer assay. Each sample was then counted three times and the data shown is the average of three counts. These test chemicals were tested in the presence of 10 nM estrogen (=2.7 ng estrogen/ml). Two wells per test concentration were used. This experiment was repeated two times. Control received solvent only at <0.1% ethanol.

[2] = read-out: 3H-thymidine incorporation % of control value, Table 1, test chemical 50 ug/ml + estrogen 1 nM, 24 hours treatment
[3] = read-out: 3H-thymidine incorporation % of control value, Table 1, test chemical 50 ug/ml alone, 24 hours treatment
[4] = Table 1, test chemical 50 ug/ml + estrogen 1 nM, 24 hours treatment
[5] = Table 1, test chemical 50 ug/ml alone, 24 hours treatment
[6] = Table 1, test chemical 50 ug/ml + estrogen 1 nM, 24 hours treatment, read-out: 3H-thymidine incorporation % of control value
[7] = Table 1, test chemical 50 ug/ml alone, 24 hours treatment, read-out: 3H-thymidine incorporation % of control value
[8] = test chemical 1 μg/ml + E2 10 nM, Day 5
[9] = test chemical 5 μg/ml + E2 10 nM, Day 5
[10] = test chemical 10 μg/ml + E2 10 nM, Day 5
[11] = test chemical 20 μg/ml + E2 10 nM, Day 5
[12] = Table 2, test chemical 50 ug/ml + estrogen 1 nM, 24 hours treatment, read-out: 3H-thymidine incorporation % of control value
[13] = Table 2, test chemical 50 ug/ml alone, 24 hours treatment, read-out: 3H-thymidine incorporation % of control value
[14] = Table 2, test chemical 50 ug/ml + estrogen 1 nM, 24 hours treatment
[15] = Table 2, test chemical 50 ug/ml alone, 24 hours treatment
[16] = test chemical 50 μg/ml + E2 10 nM, Day 5
[17] = Table 1, estrogen alone 1 nM, 24 hours treatment
[18] = Table 2, estrogen alone 1 nM, 24 hours treatment

Compound: Cc1ccc(C(C)C)cc1O [Carvacrol]
- activity at 50 µg/mL [1, 2]: 43%
- activity at 50 µg/mL [1, 3]: 50%
- 3H-thymidine incorporation % of estrogen value [1, 4]: 28%
- 3H-thymidine incorporation dpm/ug protein [1, 4]: 181.7 dpm/ug protein
- 3H-thymidine incorporation dpm/ug protein [1, 5]: 207.2 dpm/ug protein

Compound: OC/C=C/c1ccccc1 [Cinnamic alcohol]
- activity at 50 µg/mL [1, 6]: 53%
- activity at 50 µg/mL [1, 7]: 4%
- 3H-thymidine incorporation % of estrogen value [1, 4]: 34%
- 3H-thymidine incorporation dpm/ug protein [1, 4]: 220.8 dpm/ug protein
- 3H-thymidine incorporation dpm/ug protein [1, 5]: 18.5 dpm/ug protein

Compound: CC(C)=CCCC(C)CC=O (stereo not drawn) [Citronellal]
- activity at 50 µg/mL [1, 6]: 69%
- activity at 50 µg/mL [1, 7]: 20%
- 3H-thymidine incorporation % of estrogen value [1, 4]: 43%
- 3H-thymidine incorporation dpm/ug protein [1, 4]: 284.0 dpm/ug protein
- 3H-thymidine incorporation dpm/ug protein [1, 5]: 85.2 dpm/ug protein

Compound: CC12CCC(CC1)C(C)(C)O2 [Eucalyptol]
- activity at 50 µg/mL [1, 6]: 137%
- activity at 50 µg/mL [1, 7]: 96%
- 3H-thymidine incorporation % of estrogen value [1, 4]: 86%
- 3H-thymidine incorporation dpm/ug protein [1, 4]: 568.0 dpm/ug protein
- 3H-thymidine incorporation dpm/ug protein [1, 5]: 398.0 dpm/ug protein

Compound: C=CCc1ccc(O)c(OC)c1 [Eugenol]
- protection against the E2-induced abnormal growth in cancer breast cells (MCF-7 cells; 1 ug/ml, summary of Table 3): 35%
- % anti-E2 (MCF-7 cells; [8]): 25.00%
- Cell count average (MCF-7 cells; [8]): 24.0 × (10^4)/ml
- Cell count well #1 (MCF-7 cells; [8]): 19 × (10^4)/ml
- Cell count well #2 (MCF-7 cells; [8]): 29 × (10^4)/ml
- % anti-E2 (MCF-7 cells; [9]): 41.70%
- Cell count average (MCF-7 cells; [9]): 19.0 × (10^4)/ml
- Cell count well #1 (MCF-7 cells; [9]): 19 × (10^4)/ml
- Cell count well #2 (MCF-7 cells; [9]): 19 × (10^4)/ml
- % anti-E2 (MCF-7 cells; [10]): 50.00%
- Cell count average (MCF-7 cells; [10]): 16.0 × (10^4)/ml
- Cell count well #1 (MCF-7 cells; [10]): 18 × (10^4)/ml
- Cell count well #2 (MCF-7 cells; [10]): 14 × (10^4)/ml
- % anti-E2 (MCF-7 cells; [11]): 60.40%
- Cell count average (MCF-7 cells; [11]): 13.0 × (10^4)/ml
- Cell count well #1 (MCF-7 cells; [11]): 10 × (10^4)/ml
- Cell count well #2 (MCF-7 cells; [11]): 16 × (10^4)/ml
- activity at 50 µg/mL [1, 2]: 70%
- activity at 50 µg/mL [1, 3]: 52%
- 3H-thymidine incorporation % of estrogen value [1, 4]: 44%
- 3H-thymidine incorporation dpm/ug protein [1, 4]: 289.1 dpm/ug protein
- 3H-thymidine incorporation dpm/ug protein [1, 5]: 215.6 dpm/ug protein

Compound: COc1ccccc1O [Guaiacol]
- activity at 50 µg/mL [1, 12]: 180%
- activity at 50 µg/mL [1, 13]: 163%
- 3H-thymidine incorporation % of estrogen value [1, 14]: 119%
- 3H-thymidine incorporation dpm/μg protein [1, 14]: 788.8 dpm/μg protein
- 3H-thymidine incorporation dpm/μg protein [1, 15]: 712.3 dpm/μg protein

Compound: COC(=O)c1ccccc1O [Methyl salicylate]
- activity at 50 µg/mL [1, 6]: 168%
- activity at 50 µg/mL [1, 7]: 107%
- 3H-thymidine incorporation % of estrogen value [1, 4]: 106%
- 3H-thymidine incorporation dpm/ug protein [1, 4]: 693.9 dpm/ug protein
- 3H-thymidine incorporation dpm/ug protein [1, 5]: 444.0 dpm/ug protein

Compound: C=C(C)[C@H]1CC=C(C)CC1 [R-(+)-Limonene]
- 3H-thymidine incorporation % of control value [1, 14]: 119.3%
- 3H-thymidine incorporation % of estrogen value [1, 14]: 79%
- 3H-thymidine incorporation dpm/μg protein [1, 14]: 522.6 dpm/μg protein
- 3H-thymidine incorporation % of control value [1, 15]: 89.7%
- 3H-thymidine incorporation dpm/μg protein [1, 15]: 393.1 dpm/μg protein

Compound: Cc1ccc(C(C)C)c(O)c1 [Thymol]
- protection against the E2-induced abnormal growth in cancer breast cells (MCF-7 cells; 5 ug/ml, summary of Table 3): 40%
- % anti-E2 (MCF-7 cells; [8]): 00.00%
- Cell count average (MCF-7 cells; [8]): 32.0 × (10^4)/ml
- Cell count well #1 (MCF-7 cells; [8]): 32 × (10^4)/ml
- Cell count well #2 (MCF-7 cells; [8]): 32 × (10^4)/ml
- % anti-E2 (MCF-7 cells; [9]): 40.60%
- Cell count average (MCF-7 cells; [9]): 19.0 × (10^4)/ml
- Cell count well #1 (MCF-7 cells; [9]): 20 × (10^4)/ml
- Cell count well #2 (MCF-7 cells; [9]): 18 × (10^4)/ml
- % anti-E2 (MCF-7 cells; [10]): 62.50%
- Cell count average (MCF-7 cells; [10]): 12.0 × (10^4)/ml
- Cell count well #1 (MCF-7 cells; [10]): 12 × (10^4)/ml
- Cell count well #2 (MCF-7 cells; [10]): 12 × (10^4)/ml
- % anti-E2 (MCF-7 cells; [11]): 62.50%
- Cell count average (MCF-7 cells; [11]): 12.0 × (10^4)/ml
- Cell count well #1 (MCF-7 cells; [11]): 10 × (10^4)/ml
- Cell count well #2 (MCF-7 cells; [11]): 14 × (10^4)/ml
- activity at 50 µg/mL [1, 6]: 26%
- activity at 50 µg/mL [1, 7]: 23%
- 3H-thymidine incorporation % of estrogen value [1, 4]: 16%
- 3H-thymidine incorporation dpm/ug protein [1, 4]: 108.2 dpm/ug protein
- 3H-thymidine incorporation dpm/ug protein [1, 5]: 97.3 dpm/ug protein

Compound: C/C=C/c1ccc(OC)cc1 [Trans-anethole]
- activity at 50 µg/mL [1, 6]: 142%
- activity at 50 µg/mL [1, 7]: 105%
- 3H-thymidine incorporation % of estrogen value [1, 4]: 89%
- 3H-thymidine incorporation dpm/ug protein [1, 4]: 589.8 dpm/ug protein
- 3H-thymidine incorporation dpm/ug protein [1, 5]: 434.9 dpm/ug protein

Compound: OCc1ccccc1 [benzyl alcohol]
- % anti-E2 (MCF-7 cells; [16]): 35.40%
- Cell count average (MCF-7 cells; [16]): 21.0 × (10^4)/ml
- Cell count well #1 (MCF-7 cells; [16]): 24 × (10^4)/ml
- Cell count well #2 (MCF-7 cells; [16]): 18 × (10^4)/ml

Compound: O=C/C=C\c1ccccc1 [cinnamic aldehyde]
- control against the E2-induced abnormal growth in cancer breast cells (MCF-7 cells; 50 ug/ml, summary of Table 3): approximately 96%
- % anti-E2 (MCF-7 cells; [16]): 96.90%
- Cell count average (MCF-7 cells; [16]): 01.0 × (10^4)/ml
- Cell count well #1 (MCF-7 cells; [16]): 00 × (10^4)/ml
- Cell count well #2 (MCF-7 cells; [16]): 02 × (10^4)/ml

Compound: Cc1ccc(C(C)C)cc1 [p-cymene]
- activity at 50 µg/mL [1, 6]: 152%
- activity at 50 µg/mL [1, 7]: 101%
- 3H-thymidine incorporation % of estrogen value [1, 4]: 96%
- 3H-thymidine incorporation dpm/ug protein [1, 4]: 632.0 dpm/ug protein
- 3H-thymidine incorporation dpm/ug protein [1, 5]: 419.0 dpm/ug protein

Compound: CC1=CC[C@H](C(C)C)C=C1 [α-phellandrene]
- 3H-thymidine incorporation % of control value [1, 14]: 145.0%
- 3H-thymidine incorporation % of estrogen value [1, 14]: 96%
- 3H-thymidine incorporation dpm/μg protein [1, 14]: 635.3 dpm/μg protein
- 3H-thymidine incorporation % of control value [1, 15]: 79.5%
- 3H-thymidine incorporation dpm/μg protein [1, 15]: 348.4 dpm/μg protein

Compound: CC1=CCC(C(C)(C)O)CC1 (stereo not drawn) [α-terpineol]
- activity at 50 µg/mL [1, 6]: 164%
- activity at 50 µg/mL [1, 7]: 116%
- activity at 50 µg/mL [1, 12]: 145%
- activity at 50 µg/mL [1, 13]: 112%
- 3H-thymidine incorporation % of estrogen value [1, 4]: 103%
- 3H-thymidine incorporation dpm/ug protein [1, 4]: 679.1 dpm/ug protein
- 3H-thymidine incorporation dpm/ug protein [1, 5]: 480.5 dpm/ug protein
- 3H-thymidine incorporation % of estrogen value [1, 14]: 96%
- 3H-thymidine incorporation dpm/μg protein [1, 14]: 636.7 dpm/μg protein
- 3H-thymidine incorporation dpm/μg protein [1, 15]: 490.7 dpm/μg protein

Compound: Estrogen [reference compound]
- Cell count % of control (MCF-7 cells; E2 10 nM alone, Day 5): 145%
- Cell count average (MCF-7 cells; E2 10 nM alone, Day 5): 32.0 × (10^4)/ml
- Cell count well #1 (MCF-7 cells; E2 10 nM alone, Day 5): 36 × (10^4)/ml
- Cell count well #2 (MCF-7 cells; E2 10 nM alone, Day 5): 28 × (10^4)/ml
- 3H-thymidine incorporation % of estrogen value ([1]; Table 1, estrogen alone 1 nM (reference)): 100%
- 3H-thymidine incorporation % of control value [1, 17]: 158%
- 3H-thymidine incorporation dpm/ug protein [1, 17]: 658.6 dpm/ug protein
- 3H-thymidine incorporation % of estrogen value ([1]; Table 2, estrogen alone 1 nM (reference)): 100%
- 3H-thymidine incorporation % of control value [1, 18]: 151.6%
- 3H-thymidine incorporation dpm/μg protein [1, 18]: 664.2 dpm/μg protein
